Measurements reported in PubChem BioAssay AID1963872 (Molecular Pharmacology Branch, DTP, NCI, 2024).

Test system: KRAS patient-derived spheroids with HUVEC/MSC, viability
Test: Anticancer human tumor 519858-162-T-J1-PDC patient-derived colon adenocarcinoma cell line growth inhibition [KRAS2]
Details: for IC50: curve of first compound; for viability, T/C: stronger effect = lower value
Summary of the method: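 KRAS-mutant tumor cells were grown as spheroids with HUVEC endothelial cells and human MSCs as stroma. Targeted agents were tested alone and with KRAS pathway inhibitors. Doses started at or near clinical Cmax, or 10 microM, descending half-log.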
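Also: compound exposure lasted seven days before readout.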
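For viability, T/C in this document: 100% = DMSO vehicle control viability.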

Structure (SMILES): COC(=O)c1ccc2c(C(=Nc3ccc(N(C)C(=O)CN4CCN(C)CC4)cc3)c3ccccc3)c(O)[nH]c2c1 + CNCc1ccccc1-c1csc(C(C)Nc2nc(C)nc3cc(OC)c(OC)cc23)c1
- IC50 (second compound 0.1 µM): > 10 µM
- IC50 (second compound 0.316 µM): > 10 µM
- IC50 (second compound 1 µM): > 10 µM
- IC50 (second compound 3.16 µM): 2.34 µM
- IC50 (second compound 10 µM): < 0.0316 µM
- viability, T/C (second compound 0.1 µM, first compound 0.0316 µM): 96.8%
- viability, T/C (second compound 0.1 µM, first compound 0.1 µM): 83.2%
- viability, T/C (second compound 0.1 µM, first compound 0.316 µM): 77.4%
- viability, T/C (second compound 0.1 µM, first compound 1 µM): 100%
- viability, T/C (second compound 0.1 µM, first compound 3.16 µM): 92.4%
- viability, T/C (second compound 0.1 µM, first compound 10 µM): 73.3%
- viability, T/C (second compound 0.316 µM, first compound 0.0316 µM): 58.2%
- viability, T/C (second compound 0.316 µM, first compound 0.1 µM): 91.8%
- viability, T/C (second compound 0.316 µM, first compound 0.316 µM): 57%
- viability, T/C (second compound 0.316 µM, first compound 1 µM): 89.9%
- viability, T/C (second compound 0.316 µM, first compound 3.16 µM): 90.5%
- viability, T/C (second compound 0.316 µM, first compound 10 µM): 92%
- viability, T/C (second compound 1 µM, first compound 0.0316 µM): 66.9%
- viability, T/C (second compound 1 µM, first compound 0.1 µM): 110%
- viability, T/C (second compound 1 µM, first compound 0.316 µM): 103%
- viability, T/C (second compound 1 µM, first compound 1 µM): 57.1%
- viability, T/C (second compound 1 µM, first compound 3.16 µM): 64.7%
- viability, T/C (second compound 1 µM, first compound 10 µM): 70.4%
- viability, T/C (second compound 3.16 µM, first compound 0.0316 µM): 59.4%
- viability, T/C (second compound 3.16 µM, first compound 0.1 µM): 128%
- viability, T/C (second compound 3.16 µM, first compound 0.316 µM): 73.3%
- viability, T/C (second compound 3.16 µM, first compound 1 µM): 74.8%
- viability, T/C (second compound 3.16 µM, first compound 3.16 µM): 40%
- viability, T/C (second compound 3.16 µM, first compound 10 µM): 37.6%
- viability, T/C (second compound 10 µM, first compound 0.0316 µM): 0.86%
- viability, T/C (second compound 10 µM, first compound 0.1 µM): 0.39%
- viability, T/C (second compound 10 µM, first compound 0.316 µM): 0.42%
- viability, T/C (second compound 10 µM, first compound 1 µM): 0.31%
- viability, T/C (second compound 10 µM, first compound 3.16 µM): 0.28%
- viability, T/C (second compound 10 µM, first compound 10 µM): 1.62%
